This is an account of results in ChEMBL document CHEMBL5154935, “Design, Synthesis, and Biological Evaluation of Novel Evodiamine Derivatives as Potential Antihepatocellular Carcinoma Agents” (J Med Chem, 2022).

Calls of active or inactive are those of the source. The calls are words filed in the database; no cut-off is given here. Where only a bound is given, the exact number is not on record here.

A short description of data set [1]: Toxicity in BALB/c mouse xenografted with human Huh-7 cells assessed as histopathological change in heart at 10 mg/kg, ip qd for 11 days and measured after 12 days by hematoxylin and eosin staining based assay. Type of data set: organism-based. The conditions noted are these: in vivo, 288 h, time 12 day.
The subject of data set [2] is Huh-7. Briefly: Induction of mitochondrial membrane potential changes in human Huh-7 cells assessed as decrease in TMRE positive cells at 80 nM incubated for 24 hrs by TMRE staining based flow cytometry. Type of data set: functional, cell-based.
Data set [3] in a line: Induction of apoptosis in rat HSC-T6 cells assessed as early apoptotic cells at 80 nM pretreated with TGFbeta-1 for 1 day followed by compound addition and measured after 24 hrs by flow cytometry (reference value: 0.17 %). Type of data set: functional.
A short description of data set [4]: Cmax in Sprague-Dawley rat at 80 mg/kg, ip measured upto 24 hrs by LC-MS analysis. In kind it is ADME, organism-based. The conditions noted are these: in vivo. On the set-up: dose 80 mg/kg, time < 24 hrs, route ip.
Data set [5] has as its system SK-HEP1. Briefly: Antiproliferative activity against human SK-Hep1 cells assessed as inhibition of cell viability at less than 0.227 uM treated for 24 hrs by MTT assay. Type of data set: functional.
The test system of data set [6] is Huh-7. Briefly: Induction of cell cycle arrest in human Huh-7 cells assessed as accumulation at G2 phase at 10 nM treated for 24 hrs by PI staining based flow cytometry (reference value: 15.90 %). Type of data set: functional.
A short description of data set [7]: Toxicity in BALB/c mouse xenografted with human Huh-7 cells assessed as histopathological change in liver at 10 mg/kg, ip qd for 11 days and measured after 12 days by hematoxylin and eosin staining based assay. The conditions noted are these: in vivo, 288 h, time 12 day. Type of data set: organism-based.
Data set [8] in a line: MRT (0 to t) in Sprague-Dawley rat at 80 mg/kg, ip measured upto 24 hrs by LC-MS analysis. The settings on record: in vivo. In kind it is ADME, organism-based.
Data set [9] has as its system SK-HEP1. Put plainly: Antiproliferative activity against human SK-Hep1 cells assessed as inhibition of cell viability at less than 0.068 uM treated for 24 hrs by MTT assay. In kind it is functional.
Data set [10] in a line: Acute toxicity in Kunming mouse assessed as frequency of eating at 400 mg/kg, ip measured for 14 consecutive days. In kind it is organism-based. The conditions noted are these: in vivo, 336 h, time 14 day.
The nature of data set [11]: Induction of apoptosis in rat HSC-T6 cells assessed as late apoptotic cells at 80 nM pretreated with TGFbeta-1 for 1 day followed by compound addition and measured after 24 hrs by flow cytometry (reference value: 1.76 %). In kind it is functional.
Data set [12] addresses T1, DNA topoisomerase 1 (Homo sapiens) (UniProt P11387).
T1 sequence (whole entry): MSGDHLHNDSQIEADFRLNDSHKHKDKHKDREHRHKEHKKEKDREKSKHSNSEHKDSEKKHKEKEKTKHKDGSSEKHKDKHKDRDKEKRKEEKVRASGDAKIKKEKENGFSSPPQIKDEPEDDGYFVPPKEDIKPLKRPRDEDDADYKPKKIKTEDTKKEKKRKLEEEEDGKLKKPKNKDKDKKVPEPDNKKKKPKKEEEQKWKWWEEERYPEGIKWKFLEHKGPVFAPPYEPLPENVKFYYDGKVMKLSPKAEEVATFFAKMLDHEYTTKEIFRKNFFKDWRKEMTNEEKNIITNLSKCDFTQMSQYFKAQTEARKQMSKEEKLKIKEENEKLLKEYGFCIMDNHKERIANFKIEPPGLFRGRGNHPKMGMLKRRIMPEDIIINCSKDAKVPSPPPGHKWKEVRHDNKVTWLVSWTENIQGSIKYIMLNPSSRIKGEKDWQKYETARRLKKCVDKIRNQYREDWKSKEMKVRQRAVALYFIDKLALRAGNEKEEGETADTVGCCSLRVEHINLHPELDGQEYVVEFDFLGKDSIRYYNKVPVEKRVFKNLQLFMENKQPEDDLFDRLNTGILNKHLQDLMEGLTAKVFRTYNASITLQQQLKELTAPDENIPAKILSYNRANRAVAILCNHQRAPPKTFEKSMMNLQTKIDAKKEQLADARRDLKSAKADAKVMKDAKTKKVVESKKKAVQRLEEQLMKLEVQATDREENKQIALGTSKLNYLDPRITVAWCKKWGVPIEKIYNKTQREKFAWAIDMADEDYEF
Put plainly: Inhibition of Top1 (unknown origin) assessed as inhibition of relaxation of supercoiled pBR322 plasmid DNA at 12.5 uM incubated for 25 mins by ethidium bromide staining based agarose gel electrophoresis analysis relative to control.

Data set [13] can be described thus: Toxicity in BALB/c mouse xenografted with human Huh-7 cells assessed as histopathological change in spleen at 10 mg/kg, ip qd for 11 days and measured after 12 days by hematoxylin and eosin staining based assay. Type of data set: organism-based. The conditions noted are these: in vivo, 288 h, time 12 day.
For data set [14], the system named is SK-HEP1. Put plainly: Induction of cell cycle arrest in human SK-Hep1 cells assessed as accumulation at G1 phase at 40 nM treated for 24 hrs by PI staining based flow cytometry (reference value: 58.47 %). Type of data set: functional.
The subject of data set [15] is SK-HEP1. Briefly: Induction of cell cycle arrest in human SK-Hep1 cells assessed as accumulation at G2 phase at 40 nM treated for 24 hrs by PI staining based flow cytometry (reference value: 16.55 %). In kind it is functional.
The subject of data set [16] is Huh-7. Briefly: Antitumor activity against human Huh-7 cells xenografted in BALB/c mouse assessed as reduction in neo-vascularisation at 10 mg/kg, ip qd for 11 days and measured after 12 days by hematoxylin and eosin staining based assay. Type of data set: functional, organism-based. The conditions noted are these: time 12.0 day.
Data set [17] in a line: Toxicity in BALB/c mouse xenografted with human Huh-7 cells assessed as reduction in RBC levels at 10 mg/kg, ip qd for 11 days and measured on day 11. The settings on record: in vivo, 264 h, time 11 day. Type of data set: organism-based, Erythrocyte.
Data set [18] relates to Huh-7. Briefly: Induction of cell cycle arrest in human Huh-7 cells assessed as accumulation at S phase at 10 nM treated for 24 hrs by PI staining based flow cytometry (reference value: 23.33 %). In kind it is functional.
The nature of data set [19]: Half life in Sprague-Dawley rat at 80 mg/kg, ip measured upto 24 hrs by LC-MS analysis. The settings on record: in vivo. In kind it is ADME, organism-based.
Data set [20] in a line: Tmax in Sprague-Dawley rat at 80 mg/kg, ip measured upto 24 hrs by LC-MS analysis. The conditions noted are these: in vivo. In kind it is ADME, organism-based.
Data set [21] has as its system SK-HEP1. Put plainly: Induction of apoptosis in human SK-Hep1 cells assessed as viable cells at 40 nM incubated for 24 hrs by annexin V-FITC/PI staining flow cytometry (reference value: 97.8 %). In kind it is functional. The conditions noted are these: read-out: Activity.
The nature of data set [22]: Toxicity in BALB/c mouse xenografted with human Huh-7 cells assessed as reduction in WBC levels at 10 mg/kg, ip qd for 11 days and measured on day 11. Type of data set: organism-based. The conditions noted are these: in vivo, 264 h, time 11 day.
In data set [23] the test system is SK-HEP1. Put plainly: Induction of mitochondrial membrane potential changes in human SK-Hep1 cells assessed as decrease in TMRE positive cells at 10 to 80 nM incubated for 24 hrs by TMRE staining based flow cytometry (reference value: 86.19 %). Type of data set: functional. On the set-up: scale not given: the % may be the effect or the level left. The settings on record: dose 10-80 nM.

Data set [24] in a line: Acute toxicity in Kunming mouse assessed as frequency of eating at 100 mg/kg, ip measured for 14 consecutive days. The settings on record: in vivo, 336 h, time 14 day. Type of data set: organism-based.
For data set [25], the system named is Huh-7. Briefly: Antiproliferative activity against human Huh-7 cells assessed as inhibition of cell viability at less than 0.023 uM treated for 24 hrs by MTT assay. In kind it is functional.
Data set [26] deals with Huh-7. Briefly: Antiproliferative activity against human Huh-7 cells assessed as inhibition of cell viability at less than 0.021 uM treated for 24 hrs by MTT assay. In kind it is functional.
A short description of data set [27]: Acute toxicity in Kunming mouse assessed as animal survival at 100 mg/kg, ip measured for 14 consecutive days. In kind it is organism-based. The settings on record: in vivo, 336 h, time 14 day.

For the compound `CC(=O)Oc1ccc2[nH]c3c(c2c1)CCN1C(=O)c2cc(F)cc(F)c2N(c2cccc(F)c2)C31` (stereo unspecified), the Activity entry in data set [1] was “Non-Toxic”; in data set [3], 0.83%; with SK-HEP1 [5], above 80%; in the data set with Huh-7 [6], 13.54%; in data set [7] it was “Non-Toxic”; with SK-HEP1 [9], above 80%. For the same compound, the Activity result was “Non-Toxic” in [10]; 53% in data set [11]; “Non-Toxic” in data set [13]; 25.35% in the data set on SK-HEP1 [14]; 70.47% in the data set on SK-HEP1 [15]; “Non-Toxic” in data set [17]. Also, the Activity with Huh-7 [18] is listed as 34.56%; in data set [22] it was “Non-Toxic”. Further, the outcome in the data set with Huh-7 [2] and in the data set on Huh-7 [16] was Active. Further, the Cmax in data set [4] came to 350 ng/mL. Also, the MRT last at 24 h in [8] came out at 11.5 h. In addition, the inhibition in data set [12] came to 56.1%. This compound gave a half-life in data set [19] of 7.24 h. The time of peak concentration (Tmax) in data set [20] was determined as 3 h. Besides, the viability at 0.04 µM in the data set with SK-HEP1 [21] was 75.9%.

For `O=C1c2cc(F)cc(F)c2N(c2cccc(F)c2)C2c3[nH]c4ccc(O)cc4c3CCN12` (stereo unspecified), the Activity is reported as 63.69% with SK-HEP1 [23]; 0.72% in data set [3]; 26.52% in the data set with Huh-7 [6]; 41.8% in data set [11]; “Non-Toxic” in data set [24]; 21.83% in the data set with SK-HEP1 [14]. In addition, the Activity is given as above 80% with Huh-7 [25]; above 80% with Huh-7 [26]; 74.07% in the data set with SK-HEP1 [15]; “Non-Toxic” in data set [27]; 26.7% with Huh-7 [18]. Also, the outcome with Huh-7 [2] was Active. In addition, the inhibition in data set [12] was 43.9%. For the same compound, the viability at 0.04 µM with SK-HEP1 [21] worked out at 74.7%.
